Assay results from PubChem BioAssay AID504443 (Sanford-Burnham Center for Chemical Genomics, 2011).
Calls of active or inactive are those of the source. The rule behind the calls is not given here.

Each molecule was assayed on AML12 mouse hepatocytes, cytotoxicity (assay: AML12 mouse hepatocyte viability loss – cell-based, cytotoxicity control, SAR follow-up (AID 504443)).

Structure (SMILES) | IC50
CCn1c(C(=O)NCCc2ccc(OC)c(OC)c2)cc2ccsc21 | > 10 µM (inactive)
CCOc1ccc(CCNC(=O)COC(=O)c2cc(OC)cc(OC)c2)cc1OCC | > 10 µM (inactive)
CCOc1cc(CCNC(=O)CSc2cc(=O)n(C)c3ccccc23)ccc1OC | > 10 µM (inactive)
COc1cc(CNC(=O)c2cc3ccsc3n2C)cc(OC)c1OC | > 10 µM (inactive)
Cn1c(=O)cc(SCC(=O)NCCc2ccc3c(c2)OCO3)c2ccccc21 | > 10 µM (inactive)
CCOc1cc(CCNC(=O)c2cc3sccc3n2CC)ccc1OC | > 10 µM (inactive)
Cn1c(C(=O)NCc2ccc3c(c2)OCO3)cc2ccsc21 | > 10 µM (inactive)
CCOc1ccc(CCNC(=O)c2cc3ccsc3n2C)cc1OCC | > 10 µM (inactive)
CCn1c(C(=O)Nc2ccc3c(c2)OCO3)cc2sccc21 | > 10 µM (inactive)
CCOc1ccc(CCNC(=O)CCC(=O)N2CCOc3ccccc32)cc1OCC | > 10 µM (inactive)
CCOc1ccc(CCNC(=O)c2cc3sccc3n2CC)cc1OCC | > 10 µM (inactive)
COc1ccc(CCNC(=O)COC(=O)c2cc(OC)c(OC)cc2OC)cc1OC | > 10 µM (inactive)
CCOc1ccc(CCNC(=O)Cn2cccc2C(=O)c2ccccc2)cc1OCC | > 10 µM (inactive)
O=C(NCCc1ccc2c(c1)OCO2)c1cc2sccc2[nH]1 | > 10 µM (inactive)
CCOc1ccc(CCNC(=O)Cn2cccc2C(=O)c2ccccc2C)cc1OCC | > 10 µM (inactive)
CCOc1cc(CCNC(=O)c2cc3ccccc3n2C)ccc1OC | > 10 µM (inactive)
Cn1c(=O)cc(SCC(=O)NCc2ccc3c(c2)OCO3)c2ccccc21 | > 10 µM (inactive)
CCn1c(C(=O)NCc2ccc3c(c2)OCO3)cc2sccc21 | > 10 µM (inactive)
CCOc1ccc(CCNC(=O)c2cc(-c3ccccc3)c(N3CCOCC3)s2)cc1OC | > 10 µM (inactive)
CCOc1ccc(CCNC(=O)CCc2nnc3ccc(N4CCCC4)nn23)cc1OCC | > 10 µM (inactive)
CCOc1ccc(CCNC(=O)c2cc3sccc3n2C)cc1OCC | > 10 µM (inactive)
CCOc1ccc(CCNC(=O)c2cc3sccc3n2CC)cc1OC | > 10 µM (inactive)
CCOc1cc(CCNC(=O)c2cc3ccsc3n2C)ccc1OC | > 10 µM (inactive)
CCOc1ccc(CCNC(=O)c2ccc(N3CCOCC3)s2)cc1OCC | > 10 µM (inactive)
COc1ccc(CCNC(=O)c2cc3sc(Cl)cc3n2C)cc1OC | > 10 µM (inactive)
Cn1c(C(=O)Nc2ccc3c(c2)OCO3)cc2ccsc21 | > 10 µM (inactive)

Structure (SMILES) | IC50
CCOc1ccc(CCNC(=O)CN2CCN(Cc3ccccc3C)C2=O)cc1OCC | > 10 µM (inactive)
CCOc1ccc(CCNC(=O)COC(=O)c2ccc(OC)c(OC)c2OC)cc1OCC | > 10 µM (inactive)
COc1ccc(CCNC(=O)c2cc3sccc3n2C)cc1OC | > 10 µM (inactive)
CCOc1ccc(CCNC(=O)Cn2ncn3nc(-c4ccc(OC)cc4)cc3c2=O)cc1OCC | > 10 µM (inactive)
CCOc1ccc(CCNC(=O)c2cc3ccsc3n2CC)cc1OCC | > 10 µM (inactive)
CCOc1cc(CCNC(=O)c2ccc(N3CCOCC3)s2)ccc1OC | > 10 µM (inactive)
Cn1c(C(=O)NCCc2ccc3c(c2)OCO3)cc2ccccc21 | > 10 µM (inactive)
COc1ccc(CCNC(=O)Cn2cccc2C(=O)c2ccccc2C)cc1OC | > 10 µM (inactive)
CCOc1ccc(CCNC(=O)CSc2cc(=O)n(C)c3cc(Cl)ccc23)cc1OCC | > 10 µM (inactive)
CCOc1ccc(CCNC(=O)c2cc(-c3ccccc3)c(N3CCOCC3)s2)cc1OCC | > 10 µM (inactive)
CCOc1ccc(CCNC(=O)COc2cc(=O)n(C)c3ccccc23)cc1OCC | > 10 µM (inactive)
CCOc1ccc(CCNC(=O)C2CC=CCC2C(=O)OC(C)C)cc1OCC (stereo not drawn) | > 10 µM (inactive)
COc1ccc(CNC(=O)c2cc(-c3ccccc3)c(N3CCOCC3)s2)cc1OC | > 10 µM (inactive)
CCOc1cc(CCNC(=O)c2cc(-c3ccccc3)c(N3CCOCC3)s2)ccc1OC | > 10 µM (inactive)
CCOc1ccc(CCNC(=O)c2cc3ccsc3n2C)cc1OC | > 10 µM (inactive)
CCOc1ccc(CCNC(=O)CCC(=O)N2CCSc3ccccc32)cc1OCC | > 10 µM (inactive)
CCn1c(C(=O)NCc2ccc(OC)c(OC)c2)cc2ccsc21 | > 10 µM (inactive)
CCOc1ccc(CCNC(=O)c2cc3sccc3[nH]2)cc1OCC | > 10 µM (inactive)
CCn1c(C(=O)NCCc2ccc(OC)c(OC)c2)cc2sc(Cl)cc21 | > 10 µM (inactive)
CCn1c(C(=O)Nc2ccc3c(c2)OCO3)cc2ccsc21 | > 10 µM (inactive)
CCOc1cc(CCNC(=O)c2cc3sccc3[nH]2)ccc1OC | > 10 µM (inactive)
COc1ccc(CNC(=O)CSc2cc(=O)n(C)c3ccccc23)cc1OC | > 10 µM (inactive)
CCOc1ccc(CCNC(=O)COC(=O)c2cc(OC)c(OC)c(OC)c2)cc1OCC | > 10 µM (inactive)
CCn1c(C(=O)NCc2cc(OC)c(OC)c(OC)c2)cc2sccc21 | > 10 µM (inactive)
CCOc1ccc(CCNC(=O)CN2C(=O)c3cccnc3Oc3ccc(C)cc32)cc1OCC | > 10 µM (inactive)
CCOc1ccc(CCNC(=O)c2cc3ccccc3n2C)cc1OC | > 10 µM (inactive)

Structure (SMILES) | IC50
COc1ccc(NC(=O)c2cc3ccsc3n2C)cc1OC | > 10 µM (inactive)
CCOc1ccc(CCNC(=O)CCC(=O)N2CCOc3ccc(C)cc32)cc1OCC | > 10 µM (inactive)
CCOc1ccc(CCNC(=O)CSc2cc(=O)n(C)c3ccccc23)cc1OC | > 10 µM (inactive)
CCn1c(C(=O)NCc2cc(OC)c(OC)c(OC)c2)cc2ccsc21 | > 10 µM (inactive)
COc1ccc(CCNC(=O)c2cc3ccccc3n2C)cc1OC | > 10 µM (inactive)
O=C(NCCc1ccc2c(c1)OCO2)c1ccc(N2CCOCC2)s1 | > 10 µM (inactive)
CCOc1ccc(CCNC(=O)c2cc3ccsc3n2CC)cc1OC | > 10 µM (inactive)
CCOc1ccc(CCNC(=O)Cn2nc(C)c3c(C)n(-c4ccccc4)nc3c2=O)cc1OCC | > 10 µM (inactive)
COc1ccc(CNC(=O)c2ccc(N3CCOCC3)s2)cc1OC | > 10 µM (inactive)
CCn1c(C(=O)Nc2ccc(OC)c(OC)c2)cc2ccsc21 | > 10 µM (inactive)
CCOc1ccc(CCNC(=O)CCOc2cc(C)ccc2C)cc1OCC | > 10 µM (inactive)
CCOc1ccc(CCNC(=O)CCc2nnc3ccc(N4CCCCC4)nn23)cc1OCC | > 10 µM (inactive)
COc1ccc(CNC(=O)c2cc3ccsc3n2C)cc1OC | > 10 µM (inactive)
CCOc1ccc(CCNC(=O)CCc2nc(-c3ccc(OC)cc3)no2)cc1OCC | > 10 µM (inactive)
COc1ccc(CCNC(=O)c2cc(-c3ccccc3)c(N3CCOCC3)s2)c(OC)c1OC | > 10 µM (inactive)
COc1cc(CNC(=O)CSc2cc(=O)n(C)c3ccccc23)cc(OC)c1OC | > 10 µM (inactive)
CCOc1ccc(CCNC(=O)CSc2cc(=O)n(C)c3ccccc23)cc1OCC | > 10 µM (inactive)
CCOc1ccc(CCNC(=O)c2cc3sc(Cl)cc3n2C)cc1OCC | > 10 µM (inactive)
CCOc1cc(CCNC(=O)COc2cc(=O)n(C)c3ccccc23)ccc1OC | > 10 µM (inactive)
COc1ccc(CCNC(=O)c2cc(-c3ccccc3)c(N3CCOCC3)s2)cc1OC | > 10 µM (inactive)
CCn1c(C(=O)Nc2ccc(OC)c(OC)c2)cc2sccc21 | > 10 µM (inactive)
O=C(NCCc1ccc2c(c1)OCO2)c1cc(-c2ccccc2)c(N2CCOCC2)s1 | > 10 µM (inactive)
CCOc1ccc(CCNC(=O)c2nnc(Cc3ccc(F)cc3)o2)cc1OCC | > 10 µM (inactive)
CCOc1ccc(CCNC(=O)CSc2cc(=O)n(CC)c3ccccc23)cc1OCC | > 10 µM (inactive)
COc1ccc(CCNC(=O)CSc2cc(=O)n(C)c3ccccc23)cc1OC | > 10 µM (inactive)
Cn1c(=O)cc(SCC(=O)Nc2ccc3c(c2)OCO3)c2ccccc21 | > 10 µM (inactive)
